# Results from paper PMC11932996, “aac(6’)-Iaq, a novel aminoglycoside acetyltransferase gene identified from an animal isolate Brucella intermedia DW0551” (Frontiers in Cellular and Infection Microbiology, 2025).
# Tested on: AAC(6’)-Iaq
# Type: biochemical, Brucella intermedia
row,SMILES,Km
1,NCC[C@H](O)C(=O)N[C@@H]1C[C@H](N)[C@@H](O[C@H]2O[C@H](CN)[C@@H](O)[C@H](O)[C@H]2O)[C@H](O)[C@H]1O[C@H]1O[C@H](CO)[C@@H](O)[C@H](N)[C@H]1O [amikacin],14.1 ± 0.76 µM
2,NC[C@H]1O[C@H](O[C@H]2[C@H](O)[C@@H](O[C@H]3O[C@H](CO)[C@@H](O)[C@H](N)[C@H]3O)[C@H](N)C[C@@H]2N)[C@H](O)[C@@H](O)[C@@H]1O [kanamycin],13.3 ± 9.07 µM
3,CCN[C@@H]1C[C@H](N)[C@@H](O[C@H]2OC(CN)=CC[C@H]2N)[C@H](O)[C@H]1O[C@H]1OC[C@](C)(O)[C@H](NC)[C@H]1O [netilmicin],3.83 ± 0.34 µM
4,NC[C@H]1O[C@H](O[C@H]2[C@H](O[C@@H]3O[C@H](CO)[C@@H](O)[C@H]3O)[C@@H](O)[C@H](N)C[C@@H]2N)[C@H](N)[C@@H](O)[C@@H]1O [ribostamycin],10.1 ± 2.45 µM
5,CN[C@@H]1[C@@H](O)[C@@H](O[C@@H]2[C@@H](O)[C@H](O[C@H]3OC(CN)=CC[C@H]3N)[C@@H](N)C[C@H]2N)OC[C@]1(C)O [sisomicin],4.33 ± 1.32 µM
